This note sets out measurements from ChEMBL document CHEMBL3860063, “New potently bioactive alkaloids from Crinum erubescens” (Bioorg Med Chem, 2016).

Experiment [1] in a line: Antiproliferative activity against human A2780 cells measured after 2 days by AlamarBlue assay. In kind it is functional, cell-based. The conditions noted are these: A2780, 48 h. (In general: Alamar Blue is a resazurin reagent that responds to reducing activity.)
In experiment [2] the test system is Plasmodium falciparum. Briefly: Antiplasmodial activity against chloroquine/mefloquine-resistant Plasmodium falciparum Dd2 measured after 72 hrs by SYBR Green1-based fluorescence assay. In kind it is functional. Particulars: Dd2, 72 h.

As usually defined, the IC50 is the point on the concentration scale where inhibition reaches its midpoint. Take `CO[C@H]1[C@@H]2OCOCO[C@H]2[C@H](O[C@@H]2CC(=O)[C@@H]3CCN(Cc4cc5c(cc43)OCO5)C(=O)[C@H]2O)O[C@@H]1CO`: the values for the IC50 in experiment [1] and in experiment [2] were 11.1 nM and 30 nM, respectively.
In experiment [2], `C[C@@H]1CC[C@H]2[C@@H](C)C(=O)O[C@@H]3O[C@@]4(C)CC[C@@H]1[C@]32OO4` [ARTEMISININ] returned an IC50 of 6 nM.
For the compound `CO[C@@H]1[C@@H](OC)[C@H](O[C@@H]2CC(=O)[C@@H]3CCN(Cc4cc5c(cc43)OCO5)C(=O)[C@H]2O)O[C@H](CO)[C@H]1OC`, the IC50 in experiment [1] was 16.4 nM; in experiment [2] it was 180 nM.
The matching figures for `CO[C@H]1[C@@H]2OCOCO[C@H]2[C@H](O[C@@H]2CC(=O)[C@@H]3CCN(Cc4cc5c(cc43)OCO5)C(=O)[C@H]2O)O[C@@H]1C`: 25 nM and 26 nM.
For the compound `CO[C@@H]1[C@@H](OC)[C@H](O[C@@H]2CC(=O)[C@@H]3CCN(Cc4cc5c(cc43)OCO5)C(=O)[C@H]2O)O[C@H](C)[C@H]1OC`, the IC50 in experiment [1] worked out at 28 nM; in experiment [2] it was 260 nM.
